Test results as given in US3933918A, “2-Allyloxy-4-chloro-acetophenone” (Kyowa Hakko Kogyo Co., Ltd., priority 1973, dated 1976).
Counter-ions that a name gives are not always drawn.

Assays:
[1] = test system: coughs induced by electrical stimulation of central stump of the superior laryngeal nerve; test: Antitussive effect on coughs induced by electrical stimulation of central stump of the superior laryngeal nerve in anesthetized cats; format: in vivo; conditions: Felis catus, iv, cat, i.v., fiducial limits (P = 0.05), read-out: AtD50 (50% antitussive dose)
Procedure: More than 4 groups of cats, each consisting of 6 animals of either sex weighing 2-3 kg are used. The animals are lightly anesthetized by intraperitoneal injection of 20 mg/kg of pentobarbital sodium. The test is conducted according to the method of Domenjoz (Arch. Exp. Path. u. Pharmakol, 215, 19 (1952)].
The changes of inner pressure of the trachea brought about by coughs are recorded. The animals are given graded doses of the test compound or the standard compound by intravenous injection.
The antitussive effect of the compounds is determined by the changes in both the amplitude and frequency of the cough curves and the duration of the changes. When the amplitude and/or the frequency of the coughs induced by a stimulus of moderate intensity are decreased by more than 20% as compared with those before administration of the drug and when the decrease lasts for more than 20 minutes, the effect is determined to be significant. On the basis of the criteria of evaluation, the AtD50 is calculated according to the method of Lichfield and Wilcoxon.

[2] = test system: coughs induced by mechanical stimulation of the tracheal mucosa; test: Antitussive effect on coughs induced by mechanical stimulation of the tracheal mucosa in dogs ("Coughing dog" method); format: in vivo; conditions: for ED50: Canis lupus familiaris, iv, dog, mechanical stimulation, i.v., fiducial limits (P = 0.05), read-out: AtD50 (50% antitussive dose)
Procedure: a. Effect on coughs induced by mechanical stimulation of the tracheal mucosa in dogs
More than 4 groups of dogs, each consisting of 5 animals of either sex weighing 6-10 kg are used. The test is conducted according to "Coughing dog" method [Jap. J. Pharmacol. 2, 7-13 (1952); Pharm. Bull. (Japan) 2 298 (1954); and Jap. J. Pharmacol. 4 130 (1955)]. Coughs are induced by mechanical stimulation with a bristle stimulator made of pig bristles on the tracheal bifurcation through a chronically-built tracheal fistula.
Stimulation is applied by constantly and intensely moving the stimulator up and down 10 times for 20 seconds and the stimulation is repeated every 5 minutes. The changes of the inner pressure of the trachea brought about by coughs are recorded on a smoked paper. The animals are given graded doses of the test compound or the standard compound by intravenous injection.
The antitussive effect of the compounds is determined by the changes in both the amplitude and frequency of the cough curves on the smoked paper and the duration of such changes. When the amplitude and/or the frequency are decreased by more than 20% as compared with those before administration of the drug and when the decrease lasts for more than 20 minutes, the effect is determined to be significant. On the basis of the criteria of evaluation, the 50% antitussive dose (hereinafter referred to as AtD50) is calculated according to the method of Litchfield and Wilcoxon.

[3] = test system: coughs induced by mechanical stimulation of the tracheal mucosa; test: Antitussive effect on coughs induced by mechanical stimulation of the tracheal mucosa in anesthetized cats ("Coughing cat" method); format: in vivo; conditions: for ED50: Felis catus, iv, cat, mechanical stimulation, i.v., fiducial limits (P = 0.05), read-out: AtD50 (50% antitussive dose)
Procedure: b. Effect on coughs induced by mechanical stimulation of the tracheal mucosa in anesthetized cats
More than 4 groups of cats, each consisting of 6 animals of either sex weighing 2-3 kg are used. The animals are lightly anesthetized by intraperitoneal injection of 20 mg/kg of pentobarbital sodium. The test is conducted according to "Coughing cat" method [Folia Pharmacol japon. 55 99 (1959)].
Coughs are induced in the same manner as described above except that a bristle stimulator made of whiskers of rabbit is used. The AtD50 is calculated in the same manner as described above.

[4] = Acute toxicity in mice, determined as LD50; conditions: in vivo, mouse; for LD50 at 168 h: po, P.O., observed one week; for LD50 at 72 h: sc, S.C., observed 72 hours
Procedure: (§1) Acute Toxicity in Mice and in Rats -- Determined as LD50
a. More than 5 groups of male ddy-strain mice, each consisting of 10 animals weighing 18-20 g are used. The animals are given graded doses of the test compound or the standard compound by subcutaneous injection and are observed for 72 hours.
b. More than 6 groups of male dd-strain mice, each consisting of 20 animals weighing 18-20 g are used. The animals are given graded doses of the test compound or the standard compound orally and are observed for one week.
(§2) The LD50 is calculated according to the method of Litchfield and Wilcoxon [J. Pharmacol. & Exper. Therap. 96, 99 (1949)].

[5] = Acute toxicity in rats, determined as LD50; conditions: in vivo, po; rat, P.O., observed one week
Procedure: as §1
c. More than 5 groups of male Wistar strain rats, each consisting of 15 animals weighing 110-150 g are used. The animals are given graded doses of the test compound and the standard compound orally and are observed for one week.
as §2

[6] = test system: pulmonary stretch receptor; test: Effect on the pulmonary stretch receptor impulses in guinea pigs; format: in vivo, guinea pig; conditions: for Time required to return to the level before treatment with drug / Change of voltage of stretch receptor impulses (as compared with that before treatment with drug): reduced to / Change of voltage of stretch receptor impulses (as compared with that before treatment with drug): guinea pig
Source text: b. Effect on the pulmonary stretch receptor impulses
Five guinea pigs weighing 400-600 g are used. The animals are anesthetized by subcutaneous injection of 1.2 g/kg of urethane and disposed in a supine position. The chest is opened under artificial ventilation. The left vagus nerve is sectioned at the cervical region and the peripheral stumps is placed on a bipolar platinum electrode. The impulses from the pulmonary stretch receptors are observed on an oscilloscope and recorded with a long-recording camera.
The animals are given graded doses of the hydrochloride of 2-allyloxy-4-chloro-β-piperidinopropiophenone by intravenous injection.
The action of the compound on a peripheral nerve is determined by the change of the voltage of the stretch receptor impulses.
As a control, the same test is conducted using benzonatate which is known as a peripherally acting antitussive.

[7] = test system: coughs induced by mechanical stimulation on the mucosa of the tracheal bifurcation; test: Comparison of equi-active antitussive doses for various routes of administration in anesthetized dogs; format: in vivo, dog; conditions: for Site of antitussive action: central nerve: conclusion in words; for Dose giving nearly the same antitussive effect: dog
Procedure: a. Comparison of equi-active doses for various routes of administration
Five dogs weighing 8-10 kg are used. Polyethylene tubes are previously installed in the animals in the femoral vein, the vertebral artery and the cerebello-medullary cistern. The animals are lightly anesthetized by intraperitoneal injection of 20 mg/kg of pentobarbital sodium. The hydrochloride of 2-allyloxy-4-chloro-β-piperidinopropiophenone is given through the polyethylene tubes. Coughs are induced by mechanical stimulation on the mucosa of the tracheal bifurcation. The doses necessary to obtain the same degree of antitussive effect as that obtained by the administration through the femoral vein are determined.

## COc1ccc2c3c1O[C@H]1[C@@H](O)C=C[C@H]4[C@@H](C2)N(C)CC[C@@]341 [Codeine phosphate, reference compound]
[1]
  ED50: 2.1 mg/kg
[2]
  ED50: 2.5 mg/kg
[3]
  ED50: 2.3 mg/kg
[4]
  LD50 at 168 h: 729 mg/kg
  LD50 at 72 h: 191 mg/kg
[5]
  LD50 at 168 h: 807 mg/kg

## C=CCOc1cc(Cl)ccc1C(=O)CCN1CCCCC1 [2-Allyloxy-4-Chloro-β-Piperidinopropiophenone Hydrochloride]
[1]
  ED50: 4.2 mg/kg
[2]
  ED50: 3.3 mg/kg
[2]; dogs, statement in words
  Antitussive effect compared with codeine phosphate: antitussive effect equal to codeine phosphate
[3]
  ED50: 4.8 mg/kg
[3]; cats, statement in words
  Antitussive effect compared with codeine phosphate: antitussive effect equal to codeine phosphate
[6]; i.v., 5.0 mg/kg
  Time required to return to the level before treatment with drug: 10 to 20 min
[6]; i.v., 10.0 mg/kg
  Change of voltage of stretch receptor impulses (as compared with that before treatment with drug): reduced to: 1/2
  Time required to return to the level before treatment with drug: ~30 min
[6]; i.v., 1.0-2.0 mg/kg
  Change of voltage of stretch receptor impulses (as compared with that before treatment with drug): none
[6]; statement in words
  Effect on the impulses of the pulmonary stretch receptor: repress the impulses of the pulmonary stretch receptor
[4]
  LD50 at 168 h: 240 mg/kg
  LD50 at 72 h: 105 mg/kg
[5]
  LD50 at 168 h: 1020 mg/kg
[7]; Hydrochloride
  Site of antitussive action: central nerve: exerts its action on the central nerve
[7]; cerebello-medullary cistern
  Dose giving nearly the same antitussive effect: 0.06 to 0.1 mg/kg
[7]; femoral vein
  Dose giving nearly the same antitussive effect: 4.30 mg/kg
[7]; vertebral artery
  Dose giving nearly the same antitussive effect: 0.4 to 0.8 mg/kg
[7]; statement in words
  Ratio of effective doses for the three routes compared with codeine: almost the same as that obtained by using codeine

## CCCCNc1ccc(C(=O)OCCOCCOCCOCCOCCOCCOCCOCCOCCOC)cc1 [Benzonatate]
[6]; 1.0 mg/kg
  Change of voltage of stretch receptor impulses (as compared with that before treatment with drug): reduced to: 3/4
  Time required to return to the level before treatment with drug: 10 min
[6]; 2.0 mg/kg
  Change of voltage of stretch receptor impulses (as compared with that before treatment with drug): reduced to: 1/2
  Time required to return to the level before treatment with drug: 30 min
[6]; 4.0 mg/kg
  Change of voltage of stretch receptor impulses (as compared with that before treatment with drug): reduced to: zero
  Time required to return to the level before treatment with drug: 30 to 40 min
[6]; 0.1-0.5 mg/kg
  Change of voltage of stretch receptor impulses (as compared with that before treatment with drug): none

## C=CCOc1cc(Cl)ccc1C(=O)CCN1CCCCC1 [2-allyloxy-4-chloro-β-piperidinopropiophenone]
[6]; conclusion in words
  Site of antitussive action: peripheral nerves: exerts a considerable action on peripheral nerves
[7]
  Site of antitussive action: central nerve: acts centrally
